Test results from patent US9988420B2, “Cytotoxic peptides and conjugates thereof” (priority 2013, dated 2018).
Like-named read-outs stand apart in the source and are kept apart here. Starred links: 1 amine or outer side, 2 acyl side, 3 side chain; linkers in the order of their positions; H or OH if unused. Non-standard residues stand in square brackets, D forms with d. Residues, ends and D or L forms follow the SMILES beside them. *: point of attachment. Dolaproine = CO[C@@H]([C@@H]1CCCN1)[C@@H](C)C(=O)O; X1 = O=C([C@@H]1[C@H]2CC[C@H](C2)N1[*:1])[*:2]; X3 = NC(=O)CN1[C@@H]2CC[C@@H](C2)[C@H]1C(=O)*; Dil = CC[C@H](C)[C@H](NC)[C@@H](CC(=O)O)OC; X4 = N#CCN1[C@@H]2CC[C@@H](C2)[C@H]1C(=O)*; X2 = CN1[C@@H]2CC[C@@H](C2)[C@H]1C(=O)*; Phe(ol) = N[C@H](CO)Cc1ccccc1

Experiments:
Test in all cases: In vitro cell killing assay of payloads (cell proliferation, Cell-Titer-Glo)
Format in all cases: cell-based
H526 cells = conditions: Homo sapiens, read-out: In vitro cell killing (IC50 (nM)) NCI-H526
JimT1 cells = conditions: Homo sapiens, JIMT-1, 120 h, read-out: In vitro cell killing (IC50 (nM)) JimT1
HCC1954 cells = conditions: Homo sapiens, read-out: In vitro cell killing (IC50 (nM)) HCC1954
A375 cells = conditions: Homo sapiens, A-375, 120 h, Cell-Titer-Glo after five days
Procedure: (§1) For evaluation of the cell killing potency of the cytotoxic peptides of Formula (I) in vitro, cell proliferation assays were performed in parallel with 8 cell lines: MDA-MB231 clone 16, clone 40, JimT1, HCC1954, H526, KU812, CMK11-5 cells and Jurkat cells. In addition, in vitro, cell proliferation assays were performed using 3 other cell lines: A375, SKBR3 and NCI-N87. All the cell lines are described in more detail in Example 106 and were also used to assess the in vitro potency of immunoconjugates of the invention. The cell proliferation assays were conducted with Cell-Titer-Glo™ (Promega) five days after cells were incubated with various concentrations of ADCs (Riss et al., (2004) Assay Drug Dev Technol. 2:51-62).

NCI-N87 cells = conditions: Homo sapiens, 120 h, Cell-Titer-Glo after five days
Procedure: as §1

[1] = 120 h, NCI-H526 cells, Cell-Titer-Glo after five days, Table 2b
[2] = JimT1 cells, Cell-Titer-Glo after five days, Table 2b
[3] = 120 h, HCC1954 cells, Cell-Titer-Glo after five days, Table 2b

Structure (SMILES) | IC50 (H526 cells; [1]) [nM] | IC50 (JimT1 cells; [2]) [nM] | IC50 (HCC1954 cells; [3]) [nM] | IC50 (A375 cells) [nM] | IC50 (NCI-N87 cells) [nM] | IC50 (H526 cells; NCI-H526, 120 h) [nM] | IC50 (JimT1 cells) [nM] | IC50 (HCC1954 cells; HCC1954, 120 h) [nM]
CC[C@H](C)[C@@H]([C@@H](CC(=O)N1CCC[C@H]1[C@H](OC)[C@@H](C)C(=O)N[C@@H](Cc1ccccc1)C(=O)O)OC)N(C)C(=O)[C@@H](NC(=O)[C@@H]1[C@H]2CC[C@H](C2)N1C)C(C)C [Compound 54, (S)-2-((2R,3R)-3-((S)-1-((3R,4S,5S)-4-((S)-N,3-Dimethyl-2-((1R,3S,4S)-2-methyl-2-azabicyclo[2.2.1]heptane-3-carboxamido)butanamido)-3-methoxy-5-methylheptanoyl)pyrrolidin-2-yl)-3-methoxy-2-methylpropanamido)-3-phenylpropanoic acid] (X2-V[Dil][Dolaproine]F-OH) | 54.8 | 17.1 | 7.18 | 27.4 | 7.59 |  |  | 
CC[C@H](C)[C@@H]([C@@H](CC(=O)N1CCC[C@H]1[C@H](OC)[C@@H](C)C(=O)N[C@H](CO)Cc1ccccc1)OC)N(C)C(=O)[C@@H](NC(=O)[C@@H]1[C@H]2CC[C@H](C2)N1CC#N)C(C)C [Compound 63, (1R,3S,4S)-2-(Cyanomethyl)-N-((S)-1-(((3R,4S,5S)-1-((S)-2-((1R,2R)-3-(((S)-1-hydroxy-3-phenylpropan-2-yl)amino)-1-methoxy-2-methyl-3-oxopropyl)pyrrolidin-1-yl)-3-methoxy-5-methyl-1-oxoheptan-4-yl)(methyl)amino)-3-methyl-1-oxobutan-2-yl)-2-azabicyclo[2.2.1]heptane-3-carboxamide] (X4-V[Dil][Dolaproine][Phe(ol)]) | 6.49 | 5.08 | 1.64 | 14.3 | 2.09 |  |  | 
CC[C@H](C)[C@@H]([C@@H](CC(=O)N1CCC[C@H]1[C@H](OC)[C@@H](C)C(=O)N[C@H](CO)Cc1ccccc1)OC)N(C)C(=O)[C@@H](NC(=O)[C@@H]1[C@H]2CC[C@H](C2)N1CC(N)=O)C(C)C [Compound 64, (1R,3S,4S)-2-(2-Amino-2-oxoethyl)-N-((S)-1-(((3R,4S,5S)-1-((S)-2-((1R,2R)-3-(((S)-1-hydroxy-3-phenylpropan-2-yl)amino)-1-methoxy-2-methyl-3-oxopropyl)pyrrolidin-1-yl)-3-methoxy-5-methyl-1-oxoheptan-4-yl)(methyl)amino)-3-methyl-1-oxobutan-2-yl)-2-azabicyclo[2.2.1]heptane-3-carboxamide] (X3-V[Dil][Dolaproine][Phe(ol)]) | 5.74 | 4.15 | 1.09 | 25.6 | 1.21 |  |  | 
CC[C@H](C)[C@@H]([C@@H](CC(=O)N1CCC[C@H]1[C@H](OC)[C@@H](C)C(=O)N[C@H](CO)Cc1ccccc1)OC)N(C)C(=O)[C@@H](NC(=O)[C@@H]1[C@H]2CC[C@H](C2)N1C(C)=O)C(C)C [Compound 65, (1R,3S,4S)-2-Acetyl-N-((S)-1-(((3R,4S,5S)-1-((S)-2-((1R,2R)-3-(((S)-1-hydroxy-3-phenylpropan-2-yl)amino)-1-methoxy-2-methyl-3-oxopropyl)pyrrolidin-1-yl)-3-methoxy-5-methyl-1-oxoheptan-4-yl)(methyl)amino)-3-methyl-1-oxobutan-2-yl)-2-azabicyclo[2.2.1]heptane-3-carboxamide] (Ac-[X1]V[Dil][Dolaproine][Phe(ol)]) | 3.82 | 6.88 | 0.93 | 31.3 | 3.67 |  |  | 
CC[C@H](C)[C@@H]([C@@H](CC(=O)N1CCC[C@H]1[C@H](OC)[C@@H](C)C(=O)N[C@H](COC)Cc1ccccc1)OC)N(C)C(=O)[C@@H](NC(=O)[C@@H]1[C@H]2CC[C@H](C2)N1C)C(C)C [Compound 67, (1R,3S,4S)-N-((S)-1-(((3R,4S,5S)-3-Methoxy-1-((S)-2-((1R,2R)-1-methoxy-3-(((S)-1-methoxy-3-phenylpropan-2-yl)amino)-2-methyl-3-oxopropyl)pyrrolidin-1-yl)-5-methyl-1-oxoheptan-4-yl)(methyl)amino)-3-methyl-1-oxobutan-2-yl)-2-methyl-2-azabicyclo[2.2.1]heptane-3-carboxamide] |  |  |  | 0.244 |  | 0.614 | 0.369 | 0.239
CC[C@H](C)[C@@H]([C@@H](CC(=O)N1CCC[C@H]1[C@H](OC)[C@@H](C)C(=O)N[C@@H](Cc1ccccc1)c1cc[nH]n1)OC)N(C)C(=O)[C@@H](NC(=O)[C@@H]1[C@H]2CC[C@H](C2)N1C)C(C)C [Compound 68, (1R,3S,4S)-N-((S)-1-(((3R,4S,5S)-3-Methoxy-1-((S)-2-((1R,2R)-1-methoxy-2-methyl-3-oxo-3-(((S)-2-phenyl-1-(1H-pyrazol-3-yl)ethyl)amino)propyl)pyrrolidin-1-yl)-5-methyl-1-oxoheptan-4-yl)(methyl)amino)-3-methyl-1-oxobutan-2-yl)-2-methyl-2-azabicyclo[2.2.1]heptane-3-carboxamide] | 0.428 | 0.251 | 0.127 | 0.596 | 0.2 |  |  | 
CC[C@H](C)[C@@H]([C@@H](CC(=O)N1CCC[C@H]1[C@H](OC)[C@@H](C)C(=O)N[C@@H](Cc1ccccc1)c1ncccn1)OC)N(C)C(=O)[C@@H](NC(=O)[C@@H]1[C@H]2CC[C@H](C2)N1C)C(C)C [Compound 69, (1R,3S,4S)-N-((S)-1-(((3R,4S,5S)-3-Methoxy-1-((S)-2-((1R,2R)-1-methoxy-2-methyl-3-oxo-3-(((S)-2-phenyl-1-(pyrimidin-2-yl)ethyl)amino)propyl)pyrrolidin-1-yl)-5-methyl-1-oxoheptan-4-yl)(methyl)amino)-3-methyl-1-oxobutan-2-yl)-2-methyl-2-azabicyclo[2.2.1]heptane-3-carboxamide] | 0.189 | 0.091 | 0.065 | 0.092 | 0.142 |  |  | 
CC[C@H](C)[C@@H]([C@@H](CC(=O)N1CCC[C@H]1[C@H](OC)[C@@H](C)C(=O)N[C@H](Cc1ccccc1)c1ncccn1)OC)N(C)C(=O)[C@@H](NC(=O)[C@@H]1[C@H]2CC[C@H](C2)N1C)C(C)C [Compound 70, (1R,3S,4S)-N-((S)-1-(((3R,4S,5S)-3-methoxy-1-((S)-2-((1R,2R)-1-methoxy-2-methyl-3-oxo-3-(((R)-2-phenyl-1-(pyrimidin-2-yl)ethyl)amino)propyl)pyrrolidin-1-yl)-5-methyl-1-oxoheptan-4-yl)(methyl)amino)-3-methyl-1-oxobutan-2-yl)-2-methyl-2-azabicyclo[2.2.1]heptane-3-carboxamide] | 4.73 | 2.36 | 1.38 | 2.16 | 3.81 |  |  | 
CC[C@H](C)[C@@H]([C@@H](CC(=O)N1CCC[C@H]1[C@H](OC)[C@@H](C)C(=O)N[C@@H](Cc1ccccc1)c1nnc(-c2ccccc2)o1)OC)N(C)C(=O)[C@@H](NC(=O)[C@@H]1[C@H]2CC[C@H](C2)N1C)C(C)C [Compound 71, (1R,3S,4S)-N-((S)-1-(((3R,4S,5S)-3-methoxy-1-((S)-2-((1R,2R)-1-Methoxy-2-methyl-3-oxo-3-(((S)-2-phenyl-1-(5-phenyl-1,3,4-oxadiazol-2-yl)ethyl)amino)propyl)pyrrolidin-1-yl)-5-methyl-1-oxoheptan-4-yl)(methyl)amino)-3-methyl-1-oxobutan-2-yl)-2-methyl-2-azabicyclo[2.2.1]heptane-3-carboxamide] | 0.352 | 0.124 | 0.075 | 0.119 | 0.091 |  |  | 
